PubChem BioAssay AID2060508 (Molecular Pharmacology Branch, DTP, NCI, 2025)

Tested on: 454973-116-R2-J3-PDC spheroids, viability, % test/control
Test: Anticancer human tumor 454973-116-R2-J3-PDC patient-derived pancreatic carcinoma cell line growth inhibition [GQUAD]
Details: spheroids with HUVEC and MSC; for IC50: curve of first compound; for viability, T/C: stronger effect = lower value
Procedure, shortened: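 Tumor cells were grown as complex spheroids with HUVEC endothelial cells and mesenchymal stem cells as stroma. G-quadruplex stabilizers were combined with targeted agents over half-log dilutions from near the clinical Cmax, or from 10 microM.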
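Also: spheroids exposed to compounds for seven days.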
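For viability, T/C in this document: 100% = DMSO vehicle control viability.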

CC(C)n1c(=O)n(C)c2cnc3cc(F)c(-c4ccc(OCCCN5CCCCC5)nc4)cc3c21 + Cc1[nH]c2ccc(F)cc2c1-c1nc2c3cccnc3c3ncccc3c2[nH]1
IC50 (second compound 0.0316 µM): > 10 µM | IC50 (second compound 0.1 µM): > 10 µM | IC50 (second compound 0.316 µM): > 10 µM | IC50 (second compound 1 µM): > 10 µM | IC50 (second compound 3.16 µM): > 10 µM | IC50 (second compound 10 µM): > 10 µM | viability, T/C (second compound 0.0316 µM, first compound 0.0316 µM): 112% | viability, T/C (second compound 0.0316 µM, first compound 0.1 µM): 101% | viability, T/C (second compound 0.0316 µM, first compound 0.316 µM): 105% | viability, T/C (second compound 0.0316 µM, first compound 1 µM): 101% | viability, T/C (second compound 0.0316 µM, first compound 3.16 µM): 95.8% | viability, T/C (second compound 0.0316 µM, first compound 10 µM): 67.5% | viability, T/C (second compound 0.1 µM, first compound 0.0316 µM): 95.8% | viability, T/C (second compound 0.1 µM, first compound 0.1 µM): 107% | viability, T/C (second compound 0.1 µM, first compound 0.316 µM): 109% | viability, T/C (second compound 0.1 µM, first compound 1 µM): 102% | viability, T/C (second compound 0.1 µM, first compound 3.16 µM): 92.5% | viability, T/C (second compound 0.1 µM, first compound 10 µM): 63.7% | viability, T/C (second compound 0.316 µM, first compound 0.0316 µM): 110% | viability, T/C (second compound 0.316 µM, first compound 0.1 µM): 99% | viability, T/C (second compound 0.316 µM, first compound 0.316 µM): 111% | viability, T/C (second compound 0.316 µM, first compound 1 µM): 117% | viability, T/C (second compound 0.316 µM, first compound 3.16 µM): 83.9% | viability, T/C (second compound 0.316 µM, first compound 10 µM): 65% | viability, T/C (second compound 1 µM, first compound 0.0316 µM): 94.8% | viability, T/C (second compound 1 µM, first compound 0.1 µM): 101% | viability, T/C (second compound 1 µM, first compound 0.316 µM): 112% | viability, T/C (second compound 1 µM, first compound 1 µM): 93.3% | viability, T/C (second compound 1 µM, first compound 3.16 µM): 85.2% | viability, T/C (second compound 1 µM, first compound 10 µM): 61.5% | viability, T/C (second compound 3.16 µM, first compound 0.0316 µM): 89.1% | viability, T/C (second compound 3.16 µM, first compound 0.1 µM): 101% | viability, T/C (second compound 3.16 µM, first compound 0.316 µM): 96.8% | viability, T/C (second compound 3.16 µM, first compound 1 µM): 97.5% | viability, T/C (second compound 3.16 µM, first compound 3.16 µM): 96% | viability, T/C (second compound 3.16 µM, first compound 10 µM): 66% | viability, T/C (second compound 10 µM, first compound 0.0316 µM): 101% | viability, T/C (second compound 10 µM, first compound 0.1 µM): 91.9% | viability, T/C (second compound 10 µM, first compound 0.316 µM): 88.3% | viability, T/C (second compound 10 µM, first compound 1 µM): 93.7% | viability, T/C (second compound 10 µM, first compound 3.16 µM): 79.9% | viability, T/C (second compound 10 µM, first compound 10 µM): 59.7%
